Consider three molecules from BindingDB's records for doi:10.1021/jm990343b (Purdue University, 1999).

“And” between values parts separate entries of the source, which are not always exact repeats. Equal values may be shown once.

This experiment deals with T1, Gag-Pol polyprotein [588-1027]/[588-1147] (Human immunodeficiency virus 1, UniProt P04585).
T1 construct: 588-1027; 588-1147
In words: HIV-1 RT Assay. To be noted: pH 7.9.

With `COC(=O)CC=C(c1cc(Cl)c(OC)c(C(=O)OC)c1)c1cc(Cl)c(OC)c(C(=O)OC)c1` [methyl 3-chloro-5-{1-[3-chloro-4-methoxy-5-(methoxycarbonyl)phenyl]-4-methoxy-4-oxobut-1-en-1-yl}-2-methoxybenzoate], the IC50 is above 100 µM.

The molecule `COC(=O)CCC=C(c1cc(Cl)c(OC)c(C(=O)OC)c1)c1cc(Cl)c(OC)c(C(=O)OC)c1` [methyl 3-chloro-5-{1-[3-chloro-4-methoxy-5-(methoxycarbonyl)phenyl]-5-methoxy-5-oxopent-1-en-1-yl}-2-methoxybenzoate] had an IC50 above 100 µM.

For the molecule `CCC(CCCC=C(c1cc(Cl)c(OC)c(CO)c1)c1cc(Cl)c(OC)c(CO)c1)C1OCCO1` (stereo not drawn) [(3-chloro-5-{1-[3-chloro-5-(hydroxymethyl)-4-methoxyphenyl]-6-(1,3-dioxolan-2-yl)oct-1-en-1-yl}-2-methoxyphenyl)methanol], the IC50 is 3.2 µM and 31.6 µM.

The IC50 is the point on the concentration scale where inhibition reaches its midpoint. Read a low IC50 as higher potency.
